Results taken from patent US20240246913A1, “2-CARBOXYL-INDOLE INHIBITORS OF METALLO-BETA-LACTAMASES” (Oxford University Innovation Limited, priority 2021, published 2024).

Legend:
[1] = Plasma protein binding, equilibrium dialysis, mouse plasma; format: in vitro ADME; settings: pH 7.4, equilibrium dialysis (RED) 4 hours at 37° C., read-out: Plasma protein binding, fu, Mouse
Method: (§1) The fraction of unbound compound (fu) in plasma from human or other animal species was determined by equilibrium dialysis at 37° C. for 4 hours using the Rapid Equilibrium Dialysis (RED) device (ThermoFisher Scientific). The test compound at a concentration of 10 μM was added to plasma and dialyzed against isotonic phosphate buffer (67 mM, pH 7.4) over 4 hours at 37° C. After dialysis, compound concentrations in buffer and plasma were quantified by LC-MS/MS. In parallel the stability of the compound in plasma was determined by incubating drug-spiked plasma (10 μM) at 37° C. for 4 hours, meanwhile the control plasma sample was kept in the freezer. The concentration of the compound in both samples was quantified by LC-MS/MS (Waters Corp, Milford, MA, USA).

[2] = target: IMP-1 (Serratia marcescens, UniProt P52699); assay: MBL inhibition, FC-5 fluorescence assay, IMP-1; format: biochemical; settings: FC-5 cephalosporin substrate, fluorescence; ranges of obtained pIC50; read-out: pIC50 IMP-1 (converted)
Sequence of IMP-1 (P52699 19-246, looked up, species assumed): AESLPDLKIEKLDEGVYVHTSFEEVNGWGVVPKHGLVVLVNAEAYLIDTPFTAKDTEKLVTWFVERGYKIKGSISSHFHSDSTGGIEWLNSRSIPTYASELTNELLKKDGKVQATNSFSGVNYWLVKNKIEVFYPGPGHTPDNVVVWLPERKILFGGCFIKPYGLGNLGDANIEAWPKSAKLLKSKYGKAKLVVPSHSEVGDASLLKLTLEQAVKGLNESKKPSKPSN
Summary of the method: (§2)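 Inhibition of B1 metallo-β-lactamases measured by fluorophore release on hydrolysis of the cephalosporin FC-5, following initial rates by fluorescence (ex 380/em 460 nm). Dose-response data, normalized, were fitted to a variable-slope log(inhibitor) model; four intra-plate replicates per concentration.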

[3] = tested on: Acinetobacter baumannii NDM-1; assay: Antibiotic susceptibility testing (MIC), AB NDM-1; format: cell-based; settings: agar or broth dilution (CLSI/EUCAST)
Method: (§3) Antibiotic susceptibility testing was performed using the agar or broth dilution method, in line with the Clinical and Laboratory Standards Institute (CLSI) and European Committee on Antimicrobial Susceptibility Testing (EUCAST) requirements.

[4] = target: VIM-2 (Escherichia coli, UniProt Q5U7L7); assay: MBL inhibition, FC-5 fluorescence assay, VIM-2; format: biochemical; settings: FC-5 cephalosporin substrate, ranges of obtained pIC50, read-out: pIC50 VIM-2 (converted)
Summary of the method: as §2

[5] = Plasma protein binding, equilibrium dialysis, human plasma; format: in vitro ADME; settings: pH 7.4, equilibrium dialysis (RED) 4 hours at 37° C., read-out: Plasma protein binding, fu, Human
Method: as §1

[6] = target: NDM-1 (Klebsiella pneumoniae, UniProt C7C422); assay: MBL inhibition, FC-5 fluorescence assay, NDM-1; format: biochemical; settings: FC-5 cephalosporin substrate, fluorescence; ranges of obtained pIC50; read-out: pIC50 NDM-1 (converted)
Sequence of NDM-1 (C7C422 29-270, looked up, species assumed): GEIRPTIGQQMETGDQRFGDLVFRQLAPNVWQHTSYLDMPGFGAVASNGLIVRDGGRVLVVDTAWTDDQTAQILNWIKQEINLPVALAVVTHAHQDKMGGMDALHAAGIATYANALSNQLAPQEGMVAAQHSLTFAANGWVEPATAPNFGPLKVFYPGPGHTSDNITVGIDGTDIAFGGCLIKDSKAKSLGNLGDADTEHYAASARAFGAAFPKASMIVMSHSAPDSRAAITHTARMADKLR
Summary of the method: as §2

[7] = tested on: Escherichia coli NDM-1; assay: Antibiotic susceptibility testing (MIC), EC NDM-1; format: cell-based; settings: agar or broth dilution (CLSI/EUCAST)
Method: as §3

[8] = tested on: Escherichia coli NDM-7; assay: Antibiotic susceptibility testing (MIC), EC NDM-7; format: cell-based; settings: agar or broth dilution (CLSI/EUCAST)
Method: as §3

[9] = target: VIM-1 (Pseudomonas aeruginosa, UniProt A0A0F7KYQ8); assay: MBL inhibition, FC-5 fluorescence assay, VIM-1; format: biochemical; settings: FC-5 cephalosporin substrate, ranges of obtained pIC50, read-out: pIC50 VIM-1 (converted)
Summary of the method: as §2

Structure (SMILES) | fraction unbound at 4 h, 10 μM [1] | IC50 [2] | MIC values AB NDM-1 [3] | IC50 [4] | fraction unbound at 4 h, 10 μM [5] | IC50 [6] | MIC values EC NDM-1 [7] | MIC values EC NDM-7 [8] | IC50 [9]
C[C@@H](c1cccc2c(-c3ccc(NS(=O)(=O)C4COC4)c(F)c3)c(C(=O)O)[nH]c12)N1C[C@]2(C[C@@H](CN)C2)OC1=O [IC-24, 7-((S)-1-((2S,4r)-2-(aminomethyl)-6-oxo-5-oxa-7-azaspiro[3.4]octan-7-yl)ethyl)-3-(3-fluoro-4-(oxetane-3-sulfonamido)phenyl)-1H-indole-2-carboxylic acid] | 0.05 to 0.25 | > 10 nM | B (B MIC values 2 ÷ 8) | 0.1 to 1 nM | 0.05 to 0.25 | < 0.1 nM | A (A = MIC values ≤ 1) | A (A = MIC values ≤ 1) | 1 to 10 nM
C[C@@H](c1cccc2c(-c3ccc4c(c3)CNC4=O)c(C(=O)O)[nH]c12)N1C[C@]2(C[C@@H](CN)C2)OC1=O [IC-22, 7-((S)-1-((2R,4s)-2-(aminomethyl)-6-oxo-5-oxa-7-azaspiro[3.4]octan-7-yl)ethyl)-3-(1-oxoisoindolin-5-yl)-1H-indole-2-carboxylic acid] | 0.005 to 0.05 | > 10 nM | B (B MIC values 2 ÷ 8) | < 0.1 nM | 0.05 to 0.25 | 0.1 to 1 nM | A (A = MIC values ≤ 1) | A (A = MIC values ≤ 1) | 1 to 10 nM
C[C@@H](c1cccc2c(-c3c(F)cc(NS(C)(=O)=O)cc3F)c(C(=O)O)[nH]c12)n1cc(CN2CC(N)C2)oc1=O [IC-51, 7-[(1S)-1-{5-[(3-Aminoazetidin-1-yl)methyl]-2-oxo-2,3-dihydro-1,3-oxazol-3-yl}ethyl]-3-(2,6-difluoro-4-methanesulfonamidophenyl)-1H-indole-2-carboxylic acid] | 0.005 to 0.05 | > 10 nM | C (C = MIC values > 8) | 1 to 10 nM | 0.05 to 0.25 | 1 to 10 nM | C (C = MIC values > 8) | B (B MIC values 2 ÷ 8) | > 10 nM
C[C@@H](c1cccc2c(-c3c(F)cc(NS(C)(=O)=O)cc3F)c(C(=O)O)[nH]c12)N1C[C@]2(C[C@@H](CN)C2)OC1=O [IC-21, 7-((S)-1-((2S,4r)-2-(aminomethyl)-6-oxo-5-oxa-7-azaspiro[3.4]octan-7-yl)ethyl)-3-(2,6-difluoro-4-(methylsulfonamido)phenyl)-1H-indole-2-carboxylic acid] | 0.005 to 0.05 | > 10 nM | C (C = MIC values > 8) | 1 to 10 nM | 0.05 to 0.25 | 1 to 10 nM | C (C = MIC values > 8) | B (B MIC values 2 ÷ 8) | > 10 nM
CC(c1cccc2c(-c3ccc(CS(C)(=O)=O)c(F)c3)c(C(=O)O)[nH]c12)N1C(=O)CN(CCCN)C1=O (stereo not shown) [IC-13, 7-[1-[3-(3-Aminopropyl)-2,5-dioxo-imidazolidin-1-yl]ethyl]-3-[3-fluoro-4-(methylsulfonylmethyl)phenyl]-1H-indole-2-carboxylic acid] | 0.005 to 0.05 | > 10 nM |  | > 10 nM | 0.05 to 0.25 | < 0.1 nM |  |  | 1 to 10 nM
CC(NS(C)(=O)=O)c1cccc2c(-c3cc(Cl)cc(Cl)c3)c(C(=O)O)[nH]c12 (stereo not shown) [IC-2, 3-(3,5-Dichlorophenyl)-7-(1-(methylsulfonamido)ethyl)-1H-indole-2-carboxylic acid] | < 0.005 | > 10 nM |  | > 10 nM | < 0.005 | > 10 nM |  |  | > 10 nM
C[C@@H](c1cccc2c(-c3ccc(=O)[nH]c3)c(C(=O)O)[nH]c12)N1C[C@]2(C[C@@H](CN)C2)OC1=O [IC-15, 7-((S)-1-((2S,4r)-2-(aminomethyl)-6-oxo-5-oxa-7-azaspiro[3.4]octan-7-yl)ethyl)-3-(6-oxo-1,6-dihydropyridin-3-yl)-1H-indole-2-carboxylic acid] | 0.005 to 0.05 |  | C (C = MIC values > 8) |  | 0.05 to 0.25 |  | B (B MIC values 2 ÷ 8) | A (A = MIC values ≤ 1) | 
COc1ncc(-c2c(C(=O)O)[nH]c3c([C@H](C)N4C[C@]5(C[C@@H](CN)C5)OC4=O)cccc23)cc1O [IC-27, (S)-7-(1-(2-(aminomethyl)-6-oxo-5-oxa-7-azaspiro[3.4]octan-7-yl)ethyl)-3-(5-hydroxy-6-methoxypyridin-3-yl)-1H-indole-2-carboxylic acid] |  | > 10 nM | B (B MIC values 2 ÷ 8) | < 0.1 nM | 0.05 to 0.25 | 0.1 to 1 nM | B (B MIC values 2 ÷ 8) | A (A = MIC values ≤ 1) | 1 to 10 nM
CNc1cc(-c2c(C(=O)O)[nH]c3c([C@H](C)N4C[C@]5(C[C@@H](CN)C5)OC4=O)cccc23)ccn1 [IC-35, 3-[2-(methylamino)pyridin-4-yl]-7-[(1S)-1-[(2r,4r)-2-(aminomethyl)-6-oxo-5-oxa-7-azaspiro[3.4]octan-7-yl]ethyl]-1H-indole-2-carboxylic acid] |  | > 10 nM | C (C = MIC values > 8) | 0.1 to 1 nM | > 0.25 | > 10 nM | A (A = MIC values ≤ 1) | A (A = MIC values ≤ 1) | 1 to 10 nM
C[C@@H](c1cccc2c(-c3cnc(O)c(O)c3)c(C(=O)O)[nH]c12)N1C[C@]2(C[C@@H](CN)C2)OC1=O [IC-29, 7-((S)-1-((2S,4r)-2-(aminomethyl)-6-oxo-5-oxa-7-azaspiro[3.4]octan-7-yl)ethyl)-3-(5,6-dihydroxypyridin-3-yl)-1H-indole-2-carboxylic acid] |  | > 10 nM | C (C = MIC values > 8) | 1 to 10 nM | 0.005 to 0.05 | > 10 nM | B (B MIC values 2 ÷ 8) | A (A = MIC values ≤ 1) | > 10 nM
C[C@@H](c1cccc2c(-c3cnn(C)c(=O)c3)c(C(=O)O)[nH]c12)N1C[C@]2(C[C@@H](CN)C2)OC1=O [IC-28, 7-((S)-1-((2S,4r)-2-(aminomethyl)-6-oxo-5-oxa-7-azaspiro[3.4]octan-7-yl)ethyl)-3-(1-methyl-6-oxo-1,6-dihydropyridazin-4-yl)-1H-indole-2-carboxylic acid] |  | > 10 nM | C (C = MIC values > 8) | 0.1 to 1 nM | 0.05 to 0.25 | 1 to 10 nM | B (B MIC values 2 ÷ 8) | A (A = MIC values ≤ 1) | 1 to 10 nM
CC(OCC1CC[N+](C)(C)CC1)c1cccc2c(-c3ccc(CS(C)(=O)=O)c(F)c3)c(C(=O)[O-])[nH]c12 (stereo not shown) [IC-90, 7-(1-((1,1-Dimethylpiperidin-1-ium-4-yl)methoxy)ethyl)-3-(3-fluoro-4-((methylsulfonyl)methyl)phenyl)-1H-indole-2-carboxylate] | 0.05 to 0.25 | > 10 nM |  | 1 to 10 nM | > 0.25 | 1 to 10 nM |  |  | 1 to 10 nM
